Measurements published in ChEMBL document CHEMBL1914376, “Synthesis and in vitro evaluation of 7-methoxy-N-(pent-4-enyl)-1,2,3,4-tetrahydroacridin-9-amine-new tacrine derivate with cholinergic properties” (Bioorg Med Chem Lett, 2011).

Key:
Acetylcholinesterase [1] = target: T1, Acetylcholinesterase (Homo sapiens, UniProt P22303)
Description: Inhibition of human recombinant AChE after 5 mins using spectrophotometer by Ellman's method

Cholinesterase = Cholinesterase (Homo sapiens, UniProt P06276)
Description: Inhibition of human plasmatic BChE after 5 mins using spectrophotometer by Ellman's method

Acetylcholinesterase [2] = target: T1, Acetylcholinesterase; assay: Ratio of 7-MEOTA IC50 to compound IC50 for human recombinant AChE
Acetylcholinesterase [3] = target: T1, Acetylcholinesterase; assay: Ratio of Tacrine IC50 to compound IC50 for human recombinant AChE

T1 sequence (P22303 whole entry): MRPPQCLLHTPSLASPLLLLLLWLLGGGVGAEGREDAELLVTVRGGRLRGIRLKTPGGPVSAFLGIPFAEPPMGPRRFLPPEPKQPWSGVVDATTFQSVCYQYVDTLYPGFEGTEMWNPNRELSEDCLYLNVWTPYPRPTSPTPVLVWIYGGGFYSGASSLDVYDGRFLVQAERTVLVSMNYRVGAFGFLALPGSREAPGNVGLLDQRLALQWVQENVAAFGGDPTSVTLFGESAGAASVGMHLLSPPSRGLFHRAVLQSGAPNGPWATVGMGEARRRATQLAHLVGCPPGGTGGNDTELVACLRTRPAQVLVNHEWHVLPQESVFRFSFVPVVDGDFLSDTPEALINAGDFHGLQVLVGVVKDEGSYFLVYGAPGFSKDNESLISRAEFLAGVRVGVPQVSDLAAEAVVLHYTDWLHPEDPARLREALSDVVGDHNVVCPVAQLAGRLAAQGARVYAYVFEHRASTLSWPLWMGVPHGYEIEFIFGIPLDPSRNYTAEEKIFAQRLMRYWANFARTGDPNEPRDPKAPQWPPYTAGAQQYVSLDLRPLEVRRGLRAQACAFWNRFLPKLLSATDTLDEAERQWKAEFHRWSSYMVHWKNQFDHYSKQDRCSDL
Chain of Cholinesterase (P06276 whole entry): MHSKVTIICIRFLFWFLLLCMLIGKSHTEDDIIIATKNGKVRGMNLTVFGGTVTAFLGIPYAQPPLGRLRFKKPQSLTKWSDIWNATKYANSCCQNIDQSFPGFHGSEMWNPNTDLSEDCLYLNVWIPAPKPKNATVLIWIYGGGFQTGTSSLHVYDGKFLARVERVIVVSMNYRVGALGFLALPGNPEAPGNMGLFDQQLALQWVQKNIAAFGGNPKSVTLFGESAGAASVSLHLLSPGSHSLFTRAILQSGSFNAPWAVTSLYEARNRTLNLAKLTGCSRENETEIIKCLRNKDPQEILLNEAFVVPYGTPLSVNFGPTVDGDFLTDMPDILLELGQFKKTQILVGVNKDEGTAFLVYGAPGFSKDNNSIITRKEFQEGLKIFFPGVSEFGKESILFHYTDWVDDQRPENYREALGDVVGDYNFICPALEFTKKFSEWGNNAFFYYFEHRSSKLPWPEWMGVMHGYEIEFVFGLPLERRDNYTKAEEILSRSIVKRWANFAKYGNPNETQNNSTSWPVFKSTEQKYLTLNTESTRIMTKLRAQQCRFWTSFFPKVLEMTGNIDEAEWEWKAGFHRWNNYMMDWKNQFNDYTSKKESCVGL

SMILES	IC50 (Acetylcholinesterase [1]) [µM]	IC50 (Cholinesterase) [µM]	Ratio IC50 (Acetylcholinesterase [2])	Ratio IC50 (Acetylcholinesterase [3])
COc1ccc2nc3c(c(N4CCCCCN(c5c6c(nc7ccc(OC)cc57)CCCC6)CCCCC4)c2c1)CCCC3	4.6	656	–	–
C=CCCCNc1c2c(nc3ccc(OC)cc13)CCCC2	2.2	1.1	5	10
